In publication PMC11726677, “Eradication of Therapy-Resistant Cancer Stem Cells by Novel Telmisartan Derivatives” (Journal of Medicinal Chemistry, 2024):

How the values were obtained:
[1] = test system: K562-R cells; test: Chemosensitizing: metabolic activity of K562-R cells cotreated with imatinib (modified MTT assay); type: cell-based, human; conditions: 72 h
Procedure: (§1) The potential reduction in cell viability was determined using the modified MTT assay.
conc. 10 to 0.5 μM) over 72 h (Figure 3D).
(§2) COS-7 (2 × 10^3 cells per well), IGROV-1 SP (2.5 × 10^3 cells per well), A2780 V SP (1.5 × 10^3 cells per well), PC3-DR (4 × 10^3 cells per well), and DU145-DR (3 × 10^3 cells per well) cells were seeded in 96-well plates in triplicates and after 24 h, the compounds were added at the respective concentrations. K562-R and K562 cells (2 × 10^4 cells per well), were treated with the compounds 2 h after seeding. […] A modified MTT colorimetric assay (EZ4U kit, Biomedica) was used to determine the metabolic activity of the tested cells, according to the manufacturer’s instructions. Absorbance was measured and the optical density of the respective FCS-containing medium and of the substrate was subtracted to exclude nonspecific staining. Metabolic activity in the absence of the compounds (CTR, DMSO) was set to 100% as reference.

[2] = test system: ABCB1; test: Jess Simple Western immunoassay of ABCB1 expression in K562-R cells; type: cell-based, human; conditions: 4 μM, 72 h
Procedure: (§3) Protein extracts were prepared as previously described.[44] Protein expression was determined using the capillary-based Jess Simple Western detection system (ProteinSimple, BioTechne) according to the manufacturer’s instructions at default settings. […] Horseradish peroxidase (HRP)-conjugated secondary antirabbit antibody, which was included in the Jess Detection Module kit, was used. Data analysis was conducted using Compass for Simple Western 4.0 software (ProteinSimple, BioTechne).

[3] = test system: STAT5; test: Jess Simple Western immunoassay of STAT5/pSTAT5 in K562-R cells; type: cell-based, human; conditions: 4 μM + imatinib 1 μM, 6 h
Procedure: In the next step, the effects of the compounds (4 μM) on STAT5 in K562-R cells were examined.
as §3

[4] = test system: A2780 V SP cells (ABCB1+); test: SP analysis (DCV, flow cytometry) in A2780 V SP cells; type: cell-based, human; conditions: 10 μM
Excerpt: (§4) In recent studies, we described the side population (SP) phenotype as a marker that defines a heterogeneous cellular compartment with stem cell-characteristics in various cancer cell lines derived from solid tumors, such as ovarian cancer, breast cancer, and lung cancer.[26],[27]

[5] = test system: IGROV-1 SP cells (ABCB1+); test: SP analysis (DCV, flow cytometry) in IGROV-1 SP cells; type: cell-based, human; conditions: 10 μM
Excerpt: as §4

[6] = test system: PC3-DR cells (ABCB1+); test: SP analysis (DCV, flow cytometry) in PC3-DR cells; type: cell-based, human; conditions: 10 μM
Excerpt: as §4

[7] = test system: DU145-DR cells (ABCB1+); test: SP analysis (DCV, flow cytometry) in DU145-DR cells; type: cell-based, human; conditions: 10 μM
Excerpt: as §4

[8] = test system: MCF7 cells (ABCG2+); test: SP analysis (DCV, flow cytometry) in MCF7 cells; type: cell-based, human; conditions: MCF7, 10 μM
Excerpt: as §4

[9] = test system: A549 cells (ABCC1+); test: SP analysis (DCV, flow cytometry) in A549 cells; type: cell-based, human; conditions: A549, 10 μM
Excerpt: as §4

[10] = test system: STAT5; test: Jess Simple Western immunoassay of STAT5/pSTAT5 in A2780 V SP cells; type: cell-based, human; conditions: 10 μM, 72 h
Procedure: (§5) The impact of STAT5 activation on the mode of action was investigated in selected solid tumor cell lines as well.
as §3

[11] = test system: STAT5; test: Jess Simple Western immunoassay of STAT5/pSTAT5 in IGROV-1 SP cells; type: cell-based, human; conditions: 10 μM, 72 h; for STAT5 protein expression: IGROV1 SP
Procedure: as §5, §3

[12] = test system: STAT5; test: Jess Simple Western immunoassay of STAT5/pSTAT5 in MCF7 cells; type: cell-based, human; conditions: MCF7, 10 μM, 72 h
Procedure: as §5, §3

[13] = test system: STAT5; test: Jess Simple Western immunoassay of STAT5/pSTAT5 in A549 cells; type: cell-based, human; conditions: A549, 10 μM, 72 h
Procedure: as §5, §3

[14] = test system: A2780 V SP cells; test: Chemosensitizing to paclitaxel: metabolic activity of A2780 V SP cells (MTT); type: cell-based, human; conditions: compound 10 μM + PTX 10 nM, 72 h
Procedure: (§6) The chemosensitizing efficacy was investigated in the ovarian and prostate cancer cell lines using the above-described metabolic activity assay. Paclitaxel (PTX) served as a reference (CTR) in A2780 V SP and IGROV-1 SP cells and docetaxel (DTX) in PC3-DR and D145-DR cells.
as §2

[15] = test system: IGROV-1 SP cells; test: Chemosensitizing to paclitaxel: metabolic activity of IGROV-1 SP cells (MTT); type: cell-based, human; conditions: compound 10 μM + PTX 10 nM, 72 h
Procedure: as §6, §2

[16] = target: T1, ABCB1 transporter in K562-R cells (Homo sapiens, UniProt P08183); test: Side population (SP) analysis, DCV staining, flow cytometry; conditions: 10 μM
Procedure: (§7) SP analyses were performed as previously described[45] on a LSRFortessa flow cytometer (BD Biosciences, Vienna, Austria). Briefly, 1 × 10^6 cells/mL were stained with 10 μM Vybrant DyeCycleTM Violet (DCV; Molecular Probes, Eugene, OR) in the presence or absence of the investigated compounds for 90 min at 37 °C. […] Subsequently, the cells were washed and immediately analyzed using flow cytometry. The FlowJo 9.6 software was used for data analyses (Tree Star Software, Ashland, CA).

[17] = test system: K562-R cells; test: Metabolic activity of K562-R cells, compounds alone (modified MTT assay); type: cell-based, human; conditions: 10 μM, 72 h, without imatinib; vehicle control = 100%
Procedure: as §1
First, the compounds (10 μM) were applied alone to evaluate their effects per se.
as §2

[18] = test system: primary human CML patient samples; test: Colony forming cell (CFC) assay, primary CML patient samples; type: cell-based; conditions: together with 1 μM of imatinib, once at the beginning of the 14 day assay; compound 10 μM
Excerpt: Frozen peripheral blood mononuclear cells (PBMC) from TKI naïve CML patients and healthy controls were used for the CFC assay as described previously.[46] Briefly, thawed cells were resuspended a semisolid medium (Enriched MethocCult H4435, Stem Cell Technologies) supplemented with the respective compounds and cultured in small culture dishes for 2 weeks. Colonies were counted using an inverted microscope.

[19] = test system: PC3-DR cells; test: Chemosensitizing to docetaxel: metabolic activity of PC3-DR cells (MTT); type: cell-based, human; conditions: compound 10 μM + DTX 12.5 nM, 72 h
Procedure: as §6, §2

[20] = test system: DU145-DR cells; test: Chemosensitizing to docetaxel: metabolic activity of DU145-DR cells (MTT); type: cell-based, human; conditions: compound 10 μM + DTX 12.5 nM, 72 h
Procedure: as §6, §2

[21] = target: T1, ABCB1 transporter in K562-R cells; conditions: 90 min, 10 μM
Procedure: as §7

[22] = design: method as in PMID 23054986; conditions: cited from earlier work
[23] = design: method as in PMID 32759366; conditions: rat hepatocytes ref 30; cited from earlier work
[24] = test system: ABCB1; design: method as in Weiss et al. 38; conditions: ref Weiss et al. 38; cited from earlier work
[25] = not told; cited from earlier work

T1 sequence (P08183 whole entry): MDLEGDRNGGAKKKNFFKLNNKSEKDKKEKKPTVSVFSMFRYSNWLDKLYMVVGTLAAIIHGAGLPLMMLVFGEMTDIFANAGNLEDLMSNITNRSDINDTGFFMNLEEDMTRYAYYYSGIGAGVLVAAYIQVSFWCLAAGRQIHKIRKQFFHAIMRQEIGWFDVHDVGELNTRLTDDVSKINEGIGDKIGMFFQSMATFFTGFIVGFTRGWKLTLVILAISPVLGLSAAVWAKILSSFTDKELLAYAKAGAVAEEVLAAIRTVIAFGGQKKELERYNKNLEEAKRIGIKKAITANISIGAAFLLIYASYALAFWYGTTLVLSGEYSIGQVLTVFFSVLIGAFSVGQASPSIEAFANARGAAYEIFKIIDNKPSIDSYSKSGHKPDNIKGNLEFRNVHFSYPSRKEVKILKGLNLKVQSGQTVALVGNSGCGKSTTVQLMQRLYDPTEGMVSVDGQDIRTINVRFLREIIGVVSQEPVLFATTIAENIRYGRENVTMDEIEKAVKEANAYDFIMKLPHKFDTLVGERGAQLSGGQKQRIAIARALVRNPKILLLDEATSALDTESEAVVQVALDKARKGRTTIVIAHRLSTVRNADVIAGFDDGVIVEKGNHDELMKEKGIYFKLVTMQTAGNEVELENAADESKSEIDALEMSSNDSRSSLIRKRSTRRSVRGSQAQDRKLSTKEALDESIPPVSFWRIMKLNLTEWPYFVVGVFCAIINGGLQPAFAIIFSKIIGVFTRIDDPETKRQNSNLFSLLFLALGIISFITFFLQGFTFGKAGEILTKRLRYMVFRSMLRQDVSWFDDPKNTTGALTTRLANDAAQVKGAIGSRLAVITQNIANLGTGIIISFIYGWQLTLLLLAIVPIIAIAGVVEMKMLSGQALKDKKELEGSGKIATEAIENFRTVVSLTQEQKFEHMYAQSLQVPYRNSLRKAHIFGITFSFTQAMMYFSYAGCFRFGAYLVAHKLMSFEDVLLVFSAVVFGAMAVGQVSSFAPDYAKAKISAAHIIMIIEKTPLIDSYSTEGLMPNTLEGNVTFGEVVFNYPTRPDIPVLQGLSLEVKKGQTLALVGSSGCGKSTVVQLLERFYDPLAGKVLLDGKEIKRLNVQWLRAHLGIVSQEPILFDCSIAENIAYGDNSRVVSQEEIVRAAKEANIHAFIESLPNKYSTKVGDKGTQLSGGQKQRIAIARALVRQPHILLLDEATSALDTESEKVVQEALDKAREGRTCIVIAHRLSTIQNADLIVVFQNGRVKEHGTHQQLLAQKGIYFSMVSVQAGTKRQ

| SMILES | metabolic activity of K562-R cells, combination with imatinib ([1]; compound 10 μM + imatinib 1 μM) | effect on SP phenotype [4] | effect on SP phenotype [5] | effect on SP phenotype [6] | effect on SP phenotype [7] | effect on SP phenotype [8] | effect on SP phenotype [9] | STAT5 protein expression [11] | chemosensitizing to PTX therapy [14] | viability / antimetabolic effect in combination with PTX [15] | further results |
| --- | --- | --- | --- | --- | --- | --- | --- | --- | --- | --- | --- |
| CCCc1nc2ccccc2n1Cc1ccc(-c2ccc(C(N)=O)cc2)cc1 [6c, 4′-((2-Propyl-1H-benzo[d]imidazole-1-yl)methyl)-[1,1′-biphenyl]-4-carboxamide] | 8–24% | effectively targeted the SP phenotype | effectively targeted the SP phenotype | effectively targeted the SP phenotype | effectively targeted the SP phenotype | nearly inactive | nearly inactive | significantly suppressed STAT5 | particularly sensitized | increased the antimetabolic effect of PTX | EC50 ([1]; K562-R, + imatinib 1 μM, read-out: SC50 (drug concentration eliciting 50% of the maximum sensitizing effect)): 1490 nM; ABCB1 protein expression [2]: none of the compounds abrogated the ABCB1 protein expression; phosphorylation of STAT5 [3]: marked repression of the STAT5 phosphorylation; phosphorylation status of STAT5 [10]: efficiently repressed the phosphorylation status of STAT5; phosphorylation status of STAT5 ([11]; IGROV-1 SP): efficiently repressed the phosphorylation status of STAT5; phosphorylation status of STAT5 [12]: efficiently repressed the phosphorylation status of STAT5; phosphorylation status of STAT5 [13]: efficiently repressed the phosphorylation status of STAT5; effect on SP phenotype / ABCB1 activity [16]: efficiently reduced the ABCB1 activity; relation of SP and NSP [16]: about 50% |
| CCCc1nc2c(C)cc(-c3nc4ccccc4n3C)cc2n1Cc1ccc(-c2ccccc2C(=O)O)cc1 [7a, telmisartan] | 34–58% | only modestly affected | only modestly affected | only modestly affected | only modestly affected | significantly inhibited the SP phenotype | significantly inhibited the SP phenotype | significantly suppressed STAT5 | least active chemosensitizer | increased the antimetabolic effect of PTX | metabolic activity of K562-R cells, compound alone [17]: inactive; metabolic activity of K562-R cells, combination with imatinib ([1]; compound 8 μM + imatinib 1 μM): 55%; number of colonies (CFC) [18]: virtually ineffective; chemosensitizing to DTX (antimetabolic activity) [19]: only marginally increased the antimetabolic activity of DTX; chemosensitizing to DTX (antimetabolic activity) [20]: did not significantly reduce the metabolic activity; percentage of cells within SP gate [21]: 76.0%; reported aqueous solubility [22]: 9.9 µg/mL; CLint [23]: about 23 μL/min/10^6 cells; inhibition of ABCB1 [24]: impeded ABCB1; apparent permeability coefficient (Papp) [25]: 29 10^–6 cms^–1 |
